Source: patent EP4578856A1, “HETEROCYCLIC COMPOUND” (Ubience Inc., priority 2022, dated 2024)

Biological target: ROCK2 protein (Homo sapiens, UniProt O75116)
Test: Degradation inducing activity of ROCK2 protein in HUVEC cells, Western blotting (Simple Western JESS)
Assay type: cell-based
Parameters: endogenous in cells; host or cells: HUVEC (ATCC CRL-1730)
Conditions: HUVEC, 24 h; for inhibition at 1 µM: degradation rate at 1 µM; for inhibition at 10 µM: degradation rate at 10 µM
Method: In vitro degradation inducing activity of ROCK2 protein of compounds of Examples was evaluated by Western Blotting (WB).
By a test compound, 10 mM DMSO solution was prepared, which was used as a 10 µM test compound solution. Further, the solution was diluted 10-fold with DMSO to prepare a 1 mM solution, which was used as a 1 µM test compound solution.
HUVEC cells (ATCC: CRL-1730, Lot: 70041472) were cultured in F-12K medium supplemented with 10% FBS, 0.1 mg/mL heparin, […] Endothelial Cell Growth Supplement (ECGS, Corning), and 1% Penicillin/Streptomycin. The HUVEC cells seeded in a 24 well plate at 50,000 cells/well/1 mL were cultured for 24 hours, and then 1 µL of DMSO or a test compound solution was added thereto and treatment was performed for 24 hours. Cells were harvested and lysed for 20 minutes on ice using lysis buffer (Cell Signaling Technology, Cat#9803) supplemented with protease inhibitor cocktail (Sigma, Cat#P8340; Roche, Cat#P11873580001), and phosphatase inhibitor cocktail (Sigma, Cat#P5726, P0044). The lysate was sonicated (15 seconds, amplitude 30%, 1 cycle) and then centrifuged at 12500 rpm for 15 minutes at 4°C. The protein concentration was determined by BCA assay kit (Thermo Fisher Scientific, Cat#23225).
The western blotting was performed using Simple Western JESS (protein simple). A cell lysis sample (protein amount; about 1.06 µg) was loaded on a plate of Simple Western JESS, and the expression level of ROCK2 protein was detected using a 12-230 kDa Wes Separation Module (Protein simple, Cat#SM-WO04), an Anti-Rabbit Detection Module for Wes (Protein simple, Cat#DM-001), and a Total Protein Detection Module for Wes (Protein simple, Cat#DM-TP01). As the primary antibody, a material obtained by diluting ROCK2 (D1B1) Rabbit mAb (Cell Signaling Technology, Cat#9029) at 1:10 was used, and as the secondary antibody, a material obtained by diluting HRP-labeled anti-rabbit IgG antibody (Cell Signaling Technology, Cat#7074S) at 1:100 was used. The expression level of the target protein was standardized using the total protein amount loaded as a reference. The standardized expression level data of the control (DMSO) was taken as 100%, and the degradation rate (%) was calculated from the average standardized expression level data of the test compound. All analysis steps, such as data detection and analysis, are fully automated.
With respect to the ROCK2 protein degradation rate of the test compound, the protein degradation rates (%) at the evaluation concentrations were set to A ≥ 75%, 75% > B ≥ 50%, 50% > C ≥ 25%, and D < 25%, and are shown in Table 7.

Chain of ROCK2 protein (O75116 whole entry): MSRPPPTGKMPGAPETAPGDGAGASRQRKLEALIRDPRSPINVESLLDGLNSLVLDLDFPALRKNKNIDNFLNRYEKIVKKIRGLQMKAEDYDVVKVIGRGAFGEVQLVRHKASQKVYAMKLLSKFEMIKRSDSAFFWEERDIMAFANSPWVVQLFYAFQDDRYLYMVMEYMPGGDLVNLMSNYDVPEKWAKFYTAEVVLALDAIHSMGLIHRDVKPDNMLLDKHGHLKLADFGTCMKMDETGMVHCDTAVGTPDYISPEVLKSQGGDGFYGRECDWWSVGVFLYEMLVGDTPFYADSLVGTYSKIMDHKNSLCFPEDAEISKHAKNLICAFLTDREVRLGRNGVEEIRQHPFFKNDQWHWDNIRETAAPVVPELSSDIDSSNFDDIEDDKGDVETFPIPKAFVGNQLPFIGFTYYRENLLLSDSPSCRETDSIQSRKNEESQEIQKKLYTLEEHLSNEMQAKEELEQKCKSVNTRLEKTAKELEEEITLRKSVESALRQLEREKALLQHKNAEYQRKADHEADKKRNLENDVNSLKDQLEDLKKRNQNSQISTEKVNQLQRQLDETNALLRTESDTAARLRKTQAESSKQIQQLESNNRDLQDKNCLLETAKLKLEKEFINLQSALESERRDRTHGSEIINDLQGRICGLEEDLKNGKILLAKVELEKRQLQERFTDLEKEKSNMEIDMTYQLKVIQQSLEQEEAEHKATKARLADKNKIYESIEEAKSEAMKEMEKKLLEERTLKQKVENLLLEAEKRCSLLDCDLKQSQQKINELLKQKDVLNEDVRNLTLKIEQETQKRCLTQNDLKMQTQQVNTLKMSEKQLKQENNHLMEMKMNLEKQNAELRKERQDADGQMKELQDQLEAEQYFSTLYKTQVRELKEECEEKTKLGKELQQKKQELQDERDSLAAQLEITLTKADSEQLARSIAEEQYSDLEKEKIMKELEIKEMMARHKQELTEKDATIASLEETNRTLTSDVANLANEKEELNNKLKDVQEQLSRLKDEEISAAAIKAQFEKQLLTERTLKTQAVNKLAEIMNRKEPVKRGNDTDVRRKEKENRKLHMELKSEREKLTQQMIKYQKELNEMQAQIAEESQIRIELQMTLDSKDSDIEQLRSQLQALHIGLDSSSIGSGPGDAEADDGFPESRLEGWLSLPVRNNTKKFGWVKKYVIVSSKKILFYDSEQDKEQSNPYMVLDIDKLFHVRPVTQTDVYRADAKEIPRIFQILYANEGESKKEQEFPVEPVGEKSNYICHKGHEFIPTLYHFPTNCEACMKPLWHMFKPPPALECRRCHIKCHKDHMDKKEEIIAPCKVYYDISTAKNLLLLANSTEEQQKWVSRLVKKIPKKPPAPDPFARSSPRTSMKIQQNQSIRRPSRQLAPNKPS

inhibition at 1 µM [%]	inhibition at 10 µM [%]	Structure (SMILES)
< 25	≥ 75	C[C@@H]1CN(CC(=O)N2CC(C)(C)c3ncc(Cc4ccc(F)cc4)cc32)[C@@H](CN(C)CCOCCNC[C@@H](C(=O)Nc2ccc3cnccc3c2)c2ccccc2)CN1 [Example 15, (S)-3-((2-(2-((((2R,5R)-1-(2-(6-(4-Fluorobenzyl)-3,3-dimethyl-2,3-dihydro-1H-pyrrolo[3,2-b]pyridin-1-yl)-2-oxoethyl)-5-methylpiperazin-2-yl)methyl)(methyl)amino)ethoxy)ethyl)amino)-N-(isoquinolin-6-yl)-2-phenylpropanamide]
25 to 50	≥ 75	C[C@@H]1CN(CC(=O)N2CC(C)(C)c3ncc(Cc4ccc(F)cc4)cc32)[C@@H](CN(C)CCOCCOCCOCCNC[C@@H](C(=O)Nc2ccc3cnccc3c2)c2ccccc2)CN1 [Example 17, (S)-1-((2R,5R)-1-(2-(6-(4-Fluorobenzyl)-3,3-dimethyl-2,3-dihydro-1H-pyrrolo[3,2-b]pyridin-1-yl)-2-oxoethyl)-5-methylpiperazin-2-yl)-N-(isoquinolin-6-yl)-2-methyl-16-phenyl-5,8,11-trioxa-2,14-diazaheptadecan-17-amide]
≥ 75	≥ 75	C[C@@H]1CN(CC(=O)N2CC(C)(C)c3ncc(Cc4ccc(F)cc4)cc32)[C@@H](CN(C)CCOCCOCCOCCOCCNC[C@@H](C(=O)Nc2ccc3cnccc3c2)c2ccccc2)CN1 [Example 18, (S)-1-((2R,5R)-1-(2-(6-(4-Fluorobenzyl)-3,3-dimethyl-2,3-dihydro-1H-pyrrolo[3,2-b]pyridin-1-yl)-2-oxoethyl)-5-methylpiperazin-2-yl)-N-(isoquinolin-6-yl)-2-methyl-19-phenyl-5,8,11,14-tetraoxa-2,17-diazaicosan-20-amide]
25 to 50	≥ 75	C[C@@H]1CN(CC(=O)N2CC(C)(C)c3ncc(Cc4ccc(F)cc4)cc32)[C@@H](CN(C)CCOCCOCCOCCOCCOCCNC[C@@H](C(=O)Nc2ccc3cnccc3c2)c2ccccc2)CN1 [Example 19, (S)-1-((2R,5R)-1-(2-(6-(4-Fluorobenzyl)-3,3-dimethyl-2,3-dihydro-1H-pyrrolo[3,2-b]pyridin-1-yl)-2-oxoethyl)-5-methylpiperazin-2-yl)-N-(isoquinolin-6-yl)-2-methyl-22-phenyl-5,8,11,14,17-pentaoxa-2,20-diazatricosan-23-amide]
50 to 75	≥ 75	C[C@@H]1CN(CC(=O)N2CC(C)(C)c3ncc(Cc4ccc(F)cc4)cc32)[C@@H](CN(C)CCOCCOCCOCCOCCOCCOCCNC[C@@H](C(=O)Nc2ccc3cnccc3c2)c2ccccc2)CN1 [Example 20, (S)-1-((2R,5R)-1-(2-(6-(4-Fluorobenzyl)-3,3-dimethyl-2,3-dihydro-1H-pyrrolo[3,2-b]pyridin-1-yl)-2-oxoethyl)-5-methylpiperazin-2-yl)-N-(isoquinolin-6-yl)-2-methyl-25-phenyl-5,8,11,14,17,20-hexaoxa-2,23-diazahexacosan-26-amide]
25 to 50	50 to 75	C[C@@H]1CN(CC(=O)N2CC(C)(C)c3ncc(Cc4ccc(F)cc4)cc32)[C@@H](CN(C)CCOCCOCCOCCOCCOCCOCCOCCNC[C@@H](C(=O)Nc2ccc3cnccc3c2)c2ccccc2)CN1 [Example 21, (S)-1-((2R,5R)-1-(2-(6-(4-Fluorobenzyl)-3,3-dimethyl-2,3-dihydro-1H-pyrrolo[3,2-b]pyridin-1-yl)-2-oxoethyl)-5-methylpiperazin-2-yl)-N-(isoquinolin-6-yl)-2-methyl-28-phenyl-5,8,11,14,17,20,23-heptaoxa-2,26-diazanonacosan-29-amide]
< 25	≥ 75	COC[C@H]1CN[C@H](C)CN1CC(=O)N1CC(C)(C)c2nc(CN(C)CCOCCN[C@H](C)c3ccc(C(=O)Nc4ccncc4)cc3)c(Cc3ccc(F)cc3)cc21 [Example 22, 4-((R)-1-((2-(2-(((6-(4-Fluorobenzyl)-1-(2-((2R,5R)-2-(methoxymethyl)-5-methylpiperazin-1-yl)acetyl)-3,3-dimethyl-2,3-dihydro-1H-pyrrolo[3,2-b]pyridin-5-yl)methyl)(methyl)amino)ethoxy)ethyl)amino)ethyl)-N-(pyridin-4-yl)benzamide]
≥ 75	≥ 75	COC[C@H]1CN[C@H](C)CN1CC(=O)N1CC(C)(C)c2nc(CN(C)CCOCCOCCN[C@H](C)c3ccc(C(=O)Nc4ccncc4)cc3)c(Cc3ccc(F)cc3)cc21 [Example 23, 4-((R)-1-(6-(4-Fluorobenzyl)-1-(2-((2R,5R)-2-(methoxymethyl)-5-methylpiperazin-1-yl)acetyl)-3,3-dimethyl-2,3-dihydro-1H-pyrrolo[3,2-b]pyridin-5-yl)-2-methyl-5,8-dioxa-2,11-diazatridecan-12-yl)-N-(pyridin-4-yl)benzamide]
≥ 75	≥ 75	COC[C@H]1CN[C@H](C)CN1CC(=O)N1CC(C)(C)c2nc(CN(C)CCOCCOCCOCCOCCN[C@H](C)c3ccc(C(=O)Nc4ccncc4)cc3)c(Cc3ccc(F)cc3)cc21 [Example 25, 4-((R)-1-(6-(4-Fluorobenzyl)-1-(2-((2R,5R)-2-(methoxymethyl)-5-methylpiperazin-1-yl)acetyl)-3,3-dimethyl-2,3-dihydro-1H-pyrrolo[3,2-b]pyridin-5-yl)-2-methyl-5,8,11,14-tetraoxa-2,17-diazanonadecan-18-yl)-N-(pyridin-4-yl)benzamide]
50 to 75	≥ 75	COC[C@H]1CN[C@H](C)CN1CC(=O)N1CC(C)(C)c2nc(CN(C)CCOCCOCCOCCOCCOCCN[C@H](C)c3ccc(C(=O)Nc4ccncc4)cc3)c(Cc3ccc(F)cc3)cc21 [Example 26, 4-((R)-1-(6-(4-Fluorobenzyl)-1-(2-((2R,5R)-2-(methoxymethyl)-5-methylpiperazin-1-yl)acetyl)-3,3-dimethyl-2,3-dihydro-1H-pyrrolo[3,2-b]pyridin-5-yl)-2-methyl-5,8,11,14,17-pentaoxa-2,20-diazadocosan-21-yl)-N-(pyridin-4-yl)benzamide]
< 25	< 25	COC[C@H]1CN[C@H](C)CN1CC(=O)N1CC(C)(C)c2nc(CN(C)CCOCCOCCOCCOCCOCCOCCN[C@H](C)c3ccc(C(=O)Nc4ccncc4)cc3)c(Cc3ccc(F)cc3)cc21 [Example 27, 4-((R)-1-(6-(4-Fluorobenzyl)-1-(2-((2R,5R)-2-(methoxymethyl)-5-methylpiperazin-1-yl)acetyl)-3,3-dimethyl-2,3-dihydro-1H-pyrrolo[3,2-b]pyridin-5-yl)-2-methyl-5,8,11,14,17,20-hexaoxa-2,23-diazapentacosan-24-yl)-N-(pyridin-4-yl)benzamide]
50 to 75	< 25	COC[C@H]1CN[C@H](C)CN1CC(=O)N1CC(C)(C)c2nc(CN(C)CCOCCOCCOCCOCCOCCOCCOCCN[C@H](C)c3ccc(C(=O)Nc4ccncc4)cc3)c(Cc3ccc(F)cc3)cc21 [Example 28, 4-((R)-1-(6-(4-Fluorobenzyl)-1-(2-((2R,5R)-2-(methoxymethyl)-5-methylpiperazin-1-yl)acetyl)-3,3-dimethyl-2,3-dihydro-1H-pyrrolo[3,2-b]pyridin-5-yl)-2-methyl-5,8,11,14,17,20,23-heptaoxa-2,26-diazaoctacosan-27-yl)-N-(pyridin-4-yl)benzamide]
50 to 75	≥ 75	COC[C@H]1CN[C@H](C)CN1CC(=O)N1CC(C)(C)c2nc(CN(C)CCOCCN[C@H](Cc3cccc(F)c3)C(=O)Nc3ccc(-c4ccncc4)cc3)c(Cc3ccc(F)cc3)cc21 [Example 29, (R)-2-((2-(2-(((6-(4-Fluorobenzyl)-1-(2-((2R,5R)-2-(methoxymethyl)-5-methylpiperazin-1-yl)acetyl)-3,3-dimethyl-2,3-dihydro-1H-pyrrolo[3,2-b]pyridin-5-yl)methyl)(methyl)amino)ethoxy)ethyl)amino)-3-(3-fluorophenyl)-N-(4-(pyridin-4-yl)phenyl)propanamide]
